How the values were obtained:
[1] = tested on: brain-specific receptors (benzodiazepine binding); assay: Inhibition of the binding of 3H-benzodiazepine to brain-specific receptors of rats; design: species or system rat (Wistar); settings: 3H-diazepam (1.5 nM) or 3H-flunitrazepam (1.0 nM), rat cortex P2 fraction, pH 7.4, 30 minutes in ice; 12% or more = active; test concentration not given
From the text: Still another test utilized for the determination of anxiolytic activity is the measurement of the ability of a test compound to inhibit the binding of tritiated benzodiazepines to brain-specific receptors of mammals. A modification of the method described by R. F. Squires, et al., Nature, 266, No. 21:732 (April, 1977) and H. Mohler, et al., Science, 198:849 (1977) was employed.
Male albino rats (Wistar strain, weighing 150-200 g each) were used. The test compounds were solubilized in dimethylformamide, acetic acid, ethanol or hydrochloric acid.
Whole cortex of rats was homogenized gently in 20 volumes of ice-cold 0.32 M sucrose, centrifuged twice at 1000 g for 10 minutes and then recentrifuged at 30,000 g for 20 minutes to produce a crude P2 -synaptosomal fraction. The P2 -fraction was either: (1) resuspended in twice the original volume in hypotonic 50 mM Tris.HCl (pH 7.4), or (2) resuspended in one-half the original volume in hypotonic 10 mM Tris.HCl (pH 7.4) and frozen (-20° C.) until time of use. Frozen P2 preparations were thawed and resuspended in four times the original homogenizing volume at time of assay.
The binding assay consisted of 300 μl of the P2 -fraction suspension (0.2-0.4 mg protein), 100 μl of test drug and 100 μl of ^3 H-diazepam (1.5 nM, final concentration) or ^3 H-flunitrazepam (1.0 nM, final concentration) which was added to 1.5 ml of […] Tris.HCl (pH 7.4). Nonspecific binding controls and total binding controls received 100 μl of diazepam (3 μM final concentration) and 100 μl of deionized water, respectively, in place of the test compound. Incubation for 30 minutes proceeded in ice and was terminated by filtration, under vacuum, through glass fiber filters. The filters were washed twice with 5 ml of ice-cold 50 mM Tris.HCl (pH 7.4) and placed in scintillation vials. After drying at 50°-60° C. for 30 minutes, 10 ml of diluent was added and the radioactivity determined in a scintillation counter.
Inhibition of binding was calculated by the difference between total binding and binding in the presence of test compound, divided by the total binding, ×100. Physiological activity can be shown by a test compound that inhibits ^3 H-benzodiazepine binding by 12% or more.

[2] = tested on: spontaneously hypertensive rats of the Okamoto strain; assay: Reduction of mean arterial blood pressure in spontaneously hypertensive rats; assay type: in vivo, rat (Okamoto strain; settings: 100 mg/kg or less by gavage, two doses 24 h apart; MABP at 28 hours; number of rats in parentheses in cell; untreated average 160±1.5 mm Hg
Protocol: Certain of the novel compounds of the present invention are active hypotensive agents at nontoxic doses when administered to mammals. These compounds were tested for hypotensive activity by the method of P. S. Chan and D. W. Poorvin, Clinical and Experimental Hypertension, 1 (6), 817-830 (1979). Male, 16 week old, spontaneously hypertensive rats of the Okamoto strain having an average mean arterial blood pressure of 160±1.5 mm of mercury are used in the test. One to three rats are used per test compound. A rat is dosed by gavage with a test compound, suspended in 2% pre-boiled starch at a concentration of 50 mg/ml, at a dose of 100 mg/kg of body weight or less, with 0.9% sodium chloride loading at a dose of 25 ml/kg of body weight. A second identical dose of the test compound, without sodium chloride loading is given 24 hours later. At 28 hours after the initial dose the mean arterial blood pressure is measured by the method of Chan and Poorvin vide supra. The procedure is repeated in a second and third rat when necessary.

[3] = tested on: Wistar strain male rats (conflict procedure); assay: Non-conditioned passive avoidance (conflict) procedure in rats; assay type: in vivo, rat (Wistar); settings: 25 mg/kg, oral, 60 minutes before test
Protocol: Another test used to assess antianxiety effects is a non-conditioned passive avoidance procedure described by J. R. Vogel, B. Beer and D. E. Clody, "A Simple and Reliable Conflict Procedure for Testing Antianxiety Agents", Psychopharmacologia, 21:1-7 (1971). A conflict situation is induced in rats by a modification of this method.
Groups of 8 naive, Wistar strain male rats weighing 200-240 g each were deprived of water for 48 hours. The test compounds were administered in single or graded, oral doses, suspended in 2% starch with 5% polyethylene glycol in distilled water and one drop of polysorbate 80. Control animals received the vehicle alone. At 60 minutes each rat was placed in an individual clear plastic chamber. Tap water was available ad libitum from a nipple located in a black box off the main chamber. A 0.7 milliampere AC shocking current was established between the stainless steel grid floor and the tap. After 20 licks of non-shocked drinking, a 2 second shocking current was administered to the rat. This ratio of 20 licks of non-shocked drinking followed by a 2 second shock was continued for a total of 3 minutes. The number of shocks taken by each rat during the 3 minute interval was recorded and compared to a control group. […]

[4] = tested on: rats (stress induced immobility); assay: Stress Induced Immobility Test; assay type: in vivo, rat; settings: 25 mg/kg intraperitoneally, 15 minutes at 44.5° C.; control 200 seconds
Protocol: The compounds of this invention are active as antidepressant agents in warm-blooded animals as evidenced by their results when tested in the Stress Induced Immobility Test. In this test, rats were confined on a warm (44.5° C.), but aversive, surface for 15 minutes. After 5-6 minutes, control rats began to show episodes of behavior where they remained flat and immobile for periods of time. The total duration of this behavior was timed. The average duration of immobility in the control rats was 200 seconds. The test compounds were administered intraperitoneally at 25 mg/kg of body weight. A compound was considered active if the maximum duration time was <100 seconds (less than 50% of the control value) in more than 50% of the rats.

[5] = tested on: clonic seizures caused by pentylenetetrazole in rats; assay: Protection against clonic seizures caused by pentylenetetrazole in rats; assay type: in vivo, rat; settings: 25 mg/kg, oral or intraperitoneal; pentylenetetrazole 23 mg/kg i.v. at 30 or 60 minutes; active if >=50% protected
Protocol: The antianxiety properties of the novel compounds of the present invention have been established in a test which indicates anxiolytic activity by the measure of protection from convulsions resulting from the administration of pentylenetetrazole. Single or graded dose levels of the test compounds were administered orally or intraperitoneally in a 2% starch vehicle containing 0.5% v/v polyethylene glycol and one drop of polysorbate 80, or distilled water and one drop of polysorbate 80 to groups of at least 4 rats. At 30 or 60 minutes, the rats were treated intravenously with pentylenetetrazole at a dose of 23 mg/kg of body weight. This dose is estimated to cause clonic seizures in 99% of unprotected rats. The test compounds are considered active if they protect 50% or more of the rats from clonic seizures. It has been reported [R. T. Hill and D. H. Tedeschi, "Animal Testing and Screening Procedures in Evaluating Psychotropic Drugs" in "An Introduction to Psychopharmacology", pp. 237-288 (Eds. R. R. Rech and K. E. Moore, Raven Press, New York, 1971) that there is a high degree of correlation between antagonism of pentylenetetrazole seizures in rats and antianxiety effects in higher warm-blooded animals.

Row | Compound | % Inhibition of 3H-benzodiazepine binding [1] | MABP/mm Hg (no. of rats) [2] | also measured
1 | CC(C)(C)C(=O)c1cnn2c1NCCC2 [2,2-Dimethyl-1-(4,5,6,7-tetrahydropyrazolo[1,5-a]pyrimidin-3-yl)-1-propanone] | 28% | 114 mm Hg | –
2 | FC(F)(F)c1cccc(C2=CCNc3c(Cl)cnn32)c1 [3-Chloro-4,5-dihydro-7-[3-(trifluoromethyl)phenyl]pyrazolo[1,5-a]pyrimidine] | 63% | – | –
3 | N#Cc1cnn2c1NCCC2c1cccc(C(F)(F)F)c1 (stereo not drawn) [4,5,6,7-Tetrahydro-7-[3-(trifluoromethyl)phenyl]pyrazolo[1,5-a]pyrimidine-3-carbonitrile] | – | 128 mm Hg | –
4 | NC(=O)c1cnn2c1NCCC2 [4,5,6,7-Tetrahydropyrazolo[1,5-a]pyrimidine-3-carboxamide] | – | 137 mm Hg | –
5 | CN1CC=C(c2cccc(C(F)(F)F)c2)n2ncc(C#N)c21 [4,5-Dihydro-4-methyl-7-[3-(trifluoromethyl)phenyl]pyrazolo[1,5-a]pyrimidine-3-carbonitrile] | 12% | – | Result (no. of shocks per 3 min.) [3]: 19.0 no. of shocks per 3 min.
6 | CC1=C(c2cccc(C(F)(F)F)c2)n2ncc(C#N)c2NC1 [4,5-Dihydro-6-methyl-7-[3-(trifluoromethyl)phenyl]pyrazolo[1,5-a]pyrimidine-3-carbonitrile] | – | – | Mean Duration (Seconds) of immobility [4]: 55.0 s
7 | N#Cc1cnn2c1NCC=C2c1cccc(C(F)(F)F)c1 [4,5-Dihydro-7-[3-(trifluoromethyl)phenyl]pyrazolo[1,5-a]pyrimidine-3-carbonitrile] | 15% | – | –
8 | NC(=O)c1cnn2c1NCC=C2c1cccc(C(F)(F)F)c1 [4,5-Dihydro-7-[3-(trifluoromethyl)phenyl]pyrazolo[1,5-a]pyrimidine-3-carboxamide] | – | 108 mm Hg | –
9 | CCOC(=O)c1cnn2c1NCC=C2c1cccc(C(F)(F)F)c1 [4,5-Dihydro-7-[3-(trifluoromethyl)phenyl]pyrazolo[1,5-a]pyrimidine-3-carboxylic acid, ethyl ester] | 90% | – | –
10 | FC(F)(F)c1cccc(C2=CCNc3ccnn32)c1 [4,5-Dihydro-7-[3-(trifluoromethyl)phenyl]pyrazolo[1,5-a]pyrimidine] | 48% | – | –
11 | N#Cc1cnn2c1NCC=C2c1ccccc1 [4,5-Dihydro-7-phenylpyrazolo[1,5-a]pyrimidine-3-carbonitrile] | 20% | – | –
12 | NC(=O)c1cnn2c1NCC=C2c1ccccc1 [4,5-Dihydro-7-phenylpyrazolo[1,5-a]pyrimidine-3-carboxamide] | – | – | % of Rats Protected (against clonic seizures) [5]: 50%
13 | CCOC(=O)c1cnn2c1NCC=C2c1ccccc1 [4,5-Dihydro-7-phenylpyrazolo[1,5-a]pyrimidine-3-carboxylic acid, ethyl ester] | 54% | – | –
14 | Cc1nn2c(c1C(N)=O)NCC=C2c1cc(Cl)ccc1Cl [7-(2,5-Dichlorophenyl)-4,5-dihydro-2-methylpyrazolo[1,5-a]pyrimidine-3-carboxamide] | – | 95 mm Hg | –
15 | N#Cc1cnn2c1NCC=C2c1ccc(Cl)c(Cl)c1 [7-(3,4-Dichlorophenyl)-4,5-dihydropyrazolo[1,5-a]pyrimidine-3-carbonitrile] | 12% | – | –
16 | CC1CC(c2cccc(Cl)c2)n2ncc(C#N)c2N1 (stereo not drawn) [7-(3-Chlorophenyl)-4,5,6,7,-tetrahydro-5-methylpyrazolo[1,5-a]pyrimidine-3-carbonitrile] | – | – | Mean Duration (Seconds) of immobility [4]: 75.4 s
17 | CC1=C(c2cccc(Cl)c2)n2ncc(C#N)c2NC1 [7-(3-Chlorophenyl)-4,5-dihydro-6-methylpyrazolo[1,5-a]pyrimidine-3-carbonitrile] | – | – | Mean Duration (Seconds) of immobility [4]: 66.7 s
18 | NC(=O)c1cnn2c1NCC=C2c1cccc(F)c1 [7-(3-Fluorophenyl)-4,5-dihydropyrazolo[1,5-a]pyrimidine-3-carboxamide] | 39% | – | –
19 | CC1CC(c2ccc(Cl)cc2)n2ncc(C#N)c2N1 (stereo not drawn) [7-(4-Chlorophenyl)-4,5,6,7-tetrahydro-5-methylpyrazolo[1,5-a]pyrimidine-3-carbonitrile] | – | – | Mean Duration (Seconds) of immobility [4]: 4.7 s
20 | O=C(c1ccccc1)c1cnn2c1NCCC2c1ccncc1 (stereo not drawn) [Phenyl[4,5,6,7-tetrahydro-7-(4-pyridinyl)pyrazolo[1,5-a]pyrimidin-3-yl]methanone] | 22% | 125 mm Hg | –
21 | O=C(c1ccccc1)c1cnn2c1NCC=C2c1cccc(C(F)(F)F)c1 [[4,5-Dihydro-7-[3-(trifluoromethyl)phenyl]pyrazolo[1,5-a]pyrimidin-3-yl]phenylmethanone] | 76% | 122 mm Hg | % of Rats Protected (against clonic seizures) [5]: 75%; Result (no. of shocks per 3 min.) [3]: 19.1 no. of shocks per 3 min.
